Test results reported in patent US11638744B2, “Immunity enhancing agent for cancer by Allergin-1 antagonist” (ONO PHARMACEUTICAL CO., LTD., priority 2015, dated 2023).

How the values were obtained:
TLR7 = experiment: Production of type I IFN after administration of polyuridine (serum ELISA); format: in vivo; conditions: Alg1-KO mice versus WT; 50 μg/mouse i.v. with DOTAP; 2 and 6 hours after administration
Method: To C57BL/6 mice (WT mice) and Alg1-KO mice, polyuridine was intravenously administered together with a liposome transfection reagent, DOTAP. The dosage was 50 μg/mouse. Serum IFNα and IFNβ were measured by ELISA at 2 and 6 hours after administration.

[1] = test system: intraperitoneal macrophages (CD11b+F4/80+ cells); experiment: Production of IFNβ after cGAMP stimulation of intraperitoneal macrophages; format: cell-based, mouse; conditions: macrophages derived from Alg1-KO mice versus WT; 3, 10 or 30 μM; 24 and 48 hours
Method: To C57BL/6N mice and Alg1-KO mice, a 3% thioglycolate medium was intraperitoneally administered at 1 mL/body. After 3 days, 5 mL of 5 mM EDTA/PBS was injected for intraperitoneal lavage and the drain was collected. After haemolysis treatment, the proportion of CD11b^+F4/80^+ cells among intraperitoneal invasive cells was calculated on a flow cytometer.
The cells were seeded in a 96-well plate so that the CD11b^+F4/80^+ cells are 2×10^5 cells/well, the culture supernatant was discarded after 1 hour, the cells were washed once with the medium and the medium containing 3, 10 or 30 μM cyclic GMP-AMP (cGAMP), respectively was added. The culture supernatant was collected after 24 and 48 hours and the amount of IFN-β in the culture supernatants was measured.

| Substance | production of IFNα (serum) (TLR7) | production of IFNβ (serum) (TLR7) | production of IFNβ (culture supernatant) [1] |
| --- | --- | --- | --- |
| polyuridine | increased compared to WT | increased compared to WT |  |
| cyclic GMP-AMP [cGAMP] |  |  | increased compared to WT |
